Experimental data: ChEMBL document CHEMBL3885861, “Open TG-GATES”

Species on record: Rattus norvegicus
Experiment: Open TG-GATES - Regimen: Single
Assay type: toxicity, organism-based, Sprague-Dawley
Design: regimen Single, gender Male, age 6 weeks
Conditions: in vivo, po, 100 mg/kg, route gavage, dose level Middle; for APTT / Bas / Eos / Fbg / Hb / Ht / Lym / MCH / MCHC / MCV / Mono / Neu / PT / Plat / RBC / Ret / WBC: tissue Blood; for KIDNEY_L / KIDNEY_R / KIDNEY_TOTAL: tissue Kidney; for LIVER: tissue Liver; for A/G / ALP / ALT / AST / BUN / CRE / Ca / Cl / DBIL / GLC / IP / K / LDH / Na / PL / RALB / TBIL / TC / TG / TP / gamma-GTP: tissue Plasma

Structure (SMILES): Brc1ccccc1 [BROMOBENZENE]
- TERMINAL_BW (3 h): 191 g
- APTT (3 h): 16 s
- Bas (3 h): 0%
- Eos (3 h): 0.6%
- Fbg (3 h): 266.6 mg/dL
- Hb (3 h): 13.4 g/dL
- Ht (3 h): 40.5%
- Lym (3 h): 79.2%
- MCH (3 h): 21.4 pg
- MCHC (3 h): 33%
- MCV (3 h): 64.7 fL
- Mono (3 h): 3.6%
- Neu (3 h): 16%
- PT (3 h): 12.3 s
- Plat (3 h): 111.5 x10_4/uL
- RBC (3 h): 625.8 x10_4/ul
- Ret (3 h): 10%
- WBC (3 h): 74.4 x10_2/uL
- KIDNEY_L (3 h): 0.8 g
- KIDNEY_R (3 h): 0.8 g
- KIDNEY_TOTAL (3 h): 1.6 g
- LIVER (3 h): 7.8 g
- A/G (3 h): 0.9
- ALP (3 h): 1591.2 IU/L
- ALT (3 h): 51 IU/L
- AST (3 h): 76.8 IU/L
- BUN (3 h): 8.6 mg/dL
- CRE (3 h): 0.2 mg/dL
- Ca (3 h): 11 mg/dL
- Cl (3 h): 105.8 meq/L
- DBIL (3 h): 0.004 mg/dL
- GLC (3 h): 183 mg/dL
- IP (3 h): 11.1 mg/dL
- K (3 h): 3.9 meq/L
- LDH (3 h): 80.8 IU/L
- Na (3 h): 142.8 meq/L
- PL (3 h): 155.6 mg/dL
- RALB (3 h): 2.7 g/dL
- TBIL (3 h): 0.044 mg/dL
- TC (3 h): 87.4 mg/dL
- TG (3 h): 42.6 mg/dL
- TP (3 h): 5.7 g/dL
- gamma-GTP (3 h): 1.2 IU/L
- TERMINAL_BW (6 h): 190.5 g
- APTT (6 h): 15.9 s
- Bas (6 h): 0%
- Eos (6 h): 0.8%
- Fbg (6 h): 269.2 mg/dL
- Hb (6 h): 13.4 g/dL
- Ht (6 h): 39.7%
- Lym (6 h): 78.8%
- MCH (6 h): 21.4 pg
- MCHC (6 h): 33.8%
- MCV (6 h): 63.3 fL
- Mono (6 h): 2.4%
- Neu (6 h): 17.6%
- PT (6 h): 12.4 s
- Plat (6 h): 107.8 x10_4/uL
- RBC (6 h): 627 x10_4/ul
- Ret (6 h): 8.6%
- WBC (6 h): 68.9 x10_2/uL
- KIDNEY_L (6 h): 0.8 g
- KIDNEY_R (6 h): 0.8 g
- KIDNEY_TOTAL (6 h): 1.6 g
- LIVER (6 h): 6.8 g
- A/G (6 h): 0.9
- ALP (6 h): 1550 IU/L
- ALT (6 h): 41.8 IU/L
- AST (6 h): 75.4 IU/L
- BUN (6 h): 9.4 mg/dL
- CRE (6 h): 0.1 mg/dL
- Ca (6 h): 10.8 mg/dL
- Cl (6 h): 105.4 meq/L
- DBIL (6 h): 0.014 mg/dL
- GLC (6 h): 179.8 mg/dL
- IP (6 h): 11 mg/dL
- K (6 h): 3.8 meq/L
- LDH (6 h): 64.4 IU/L
- Na (6 h): 141.2 meq/L
- PL (6 h): 137.8 mg/dL
- RALB (6 h): 2.6 g/dL
- TBIL (6 h): 0.054 mg/dL
- TC (6 h): 78.4 mg/dL
- TG (6 h): 41.4 mg/dL
- TP (6 h): 5.6 g/dL
- gamma-GTP (6 h): 1.6 IU/L
- TERMINAL_BW (9 h): 190 g
- APTT (9 h): 15.5 s
- Bas (9 h): 0%
- Eos (9 h): 0.6%
- Fbg (9 h): 266.4 mg/dL
- Hb (9 h): 13.5 g/dL
- Ht (9 h): 40.2%
- Lym (9 h): 76.8%
- MCH (9 h): 21.5 pg
- MCHC (9 h): 33.6%
- MCV (9 h): 63.9 fL
- Mono (9 h): 2.2%
- Neu (9 h): 19.4%
- PT (9 h): 12.3 s
- Plat (9 h): 115.9 x10_4/uL
- RBC (9 h): 629 x10_4/ul
- Ret (9 h): 9.1%
- WBC (9 h): 79.5 x10_2/uL
- KIDNEY_L (9 h): 0.8 g
- KIDNEY_R (9 h): 0.8 g
- KIDNEY_TOTAL (9 h): 1.5 g
- LIVER (9 h): 6.8 g
- A/G (9 h): 0.9
- ALP (9 h): 1400.4 IU/L
- ALT (9 h): 39.4 IU/L
- AST (9 h): 70.8 IU/L
- BUN (9 h): 13 mg/dL
- CRE (9 h): 0.2 mg/dL
- Ca (9 h): 10.8 mg/dL
- Cl (9 h): 107 meq/L
- DBIL (9 h): 0.02 mg/dL
- GLC (9 h): 179.2 mg/dL
- IP (9 h): 10.8 mg/dL
- K (9 h): 4 meq/L
- LDH (9 h): 78.2 IU/L
- Na (9 h): 141.8 meq/L
- PL (9 h): 147.8 mg/dL
- RALB (9 h): 2.6 g/dL
- TBIL (9 h): 0.064 mg/dL
- TC (9 h): 88 mg/dL
- TG (9 h): 29.4 mg/dL
- TP (9 h): 5.5 g/dL
- gamma-GTP (9 h): 1.4 IU/L
- TERMINAL_BW (24 h): 193.2 g
- APTT (24 h): 15.4 s
- Bas (24 h): 0%
- Eos (24 h): 0.8%
- Fbg (24 h): 224.4 mg/dL
- Hb (24 h): 12.9 g/dL
- Ht (24 h): 38%
- Lym (24 h): 79.6%
- MCH (24 h): 21.5 pg
- MCHC (24 h): 33.9%
- MCV (24 h): 63.3 fL
- Mono (24 h): 2.8%
- Neu (24 h): 16.4%
- PT (24 h): 12.9 s
- Plat (24 h): 112.9 x10_4/uL
- RBC (24 h): 600.8 x10_4/ul
- Ret (24 h): 8.5%
- WBC (24 h): 84.8 x10_2/uL
- KIDNEY_L (24 h): 0.9 g
- KIDNEY_R (24 h): 0.9 g
- KIDNEY_TOTAL (24 h): 1.7 g
- LIVER (24 h): 8.9 g
- A/G (24 h): 0.9
- ALP (24 h): 1694.4 IU/L
- ALT (24 h): 52.2 IU/L
- AST (24 h): 79 IU/L
- BUN (24 h): 12 mg/dL
- CRE (24 h): 0.2 mg/dL
- Ca (24 h): 10.4 mg/dL
- Cl (24 h): 106 meq/L
- DBIL (24 h): 0.018 mg/dL
- GLC (24 h): 186 mg/dL
- IP (24 h): 8.1 mg/dL
- K (24 h): 4 meq/L
- LDH (24 h): 103.2 IU/L
- Na (24 h): 142.6 meq/L
- PL (24 h): 146.8 mg/dL
- RALB (24 h): 2.5 g/dL
- TBIL (24 h): 0.062 mg/dL
- TC (24 h): 76.8 mg/dL
- TG (24 h): 100 mg/dL
- TP (24 h): 5.4 g/dL
- gamma-GTP (24 h): 1.4 IU/L
